Experimental data taken from article PMC8958504 (Journal of Medicinal Chemistry, 2022).
Values joined by “and” are separate entries in the source; they are usually repeats but may differ in a detail not shown here. Identical values can stand only once.

Assays:
hMAO-A = molecular target: T1, hMAO-A (Homo sapiens, UniProt P21397); test: biochemical; conditions: for IC50: read-out: hMAO-A (IC50), recombinant hMAO-A, p-tyramine substrate
T1 sequence (P21397 1-527): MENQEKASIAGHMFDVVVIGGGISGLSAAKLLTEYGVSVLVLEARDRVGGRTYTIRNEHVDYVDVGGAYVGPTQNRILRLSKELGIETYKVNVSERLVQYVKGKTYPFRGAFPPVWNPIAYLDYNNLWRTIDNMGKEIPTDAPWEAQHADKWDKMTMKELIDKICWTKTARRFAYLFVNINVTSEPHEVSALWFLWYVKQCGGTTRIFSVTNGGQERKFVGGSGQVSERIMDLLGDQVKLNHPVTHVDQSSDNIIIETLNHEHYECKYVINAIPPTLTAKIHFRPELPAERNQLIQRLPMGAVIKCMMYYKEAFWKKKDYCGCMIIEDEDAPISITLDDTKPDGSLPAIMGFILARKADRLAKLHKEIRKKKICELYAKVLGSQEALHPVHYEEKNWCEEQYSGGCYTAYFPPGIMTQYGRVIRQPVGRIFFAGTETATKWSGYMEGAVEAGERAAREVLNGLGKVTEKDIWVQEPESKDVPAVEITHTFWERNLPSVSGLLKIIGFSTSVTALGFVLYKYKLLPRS
Description: (§1) The hMAO-A/B inhibition of all compounds was determined using the Amplex Red MAO assay kit.
(§2) Assays were performed following the general procedure previously described.[98] […] The specific fluorescence emission was calculated after subtracting the background activity, which was determined from wells containing all components except the hMAO isoforms, which were replaced with PBS.

hMAO-B = molecular target: T2, hMAO-B (Homo sapiens, UniProt P27338); test: biochemical; conditions: for IC50: read-out: hMAO-B (IC50), recombinant hMAO-B, p-tyramine substrate; for inhibition at 50 µM: read-out: hMAO-B percentage of inhibition (in brackets)
T2 sequence (P27338 1-520): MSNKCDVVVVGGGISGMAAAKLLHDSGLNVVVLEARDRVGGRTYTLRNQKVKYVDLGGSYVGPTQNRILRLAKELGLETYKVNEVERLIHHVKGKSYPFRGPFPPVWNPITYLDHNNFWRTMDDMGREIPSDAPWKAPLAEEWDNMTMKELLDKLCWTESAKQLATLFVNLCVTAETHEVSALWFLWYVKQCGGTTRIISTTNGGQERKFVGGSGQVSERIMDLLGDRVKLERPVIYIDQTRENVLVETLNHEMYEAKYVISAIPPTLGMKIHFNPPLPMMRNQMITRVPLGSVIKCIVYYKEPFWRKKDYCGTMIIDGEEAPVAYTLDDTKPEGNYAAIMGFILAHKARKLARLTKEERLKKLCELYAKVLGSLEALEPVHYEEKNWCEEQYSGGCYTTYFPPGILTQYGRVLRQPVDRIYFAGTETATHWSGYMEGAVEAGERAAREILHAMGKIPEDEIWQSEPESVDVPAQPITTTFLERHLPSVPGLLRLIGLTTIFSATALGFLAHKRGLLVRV
Description: as §1, §2

[1] = system: NRF2-ARE signaling pathway; test: cells; assay type: cell-based; conditions: for EC (2-fold induction): Arec32, 24 h, read-out: NRF2 (CD, μM), concentration required to double luciferase activity, AREc32 cells, 24 h; for NRF2 (CD, μM): concentration required to double luciferase activity, AREc32 cells, 24 h
Description: AREc32 cells were plated in 96-well white plates (2 × 10^4 cells/well). […]. The AREc32 cells constitutively express the plasmid pGL-8xARE that implements eight copies of the EpRE sequences, followed by the luciferase reporter gene. Therefore, NRF2 induction is related to the activation of EpRE sequences, expressing luciferase at the same extent as EpRE sequences are activated. The Luciferase Assay System (Promega E1500) was used according to the provider’s protocol, and luminescence was quantified in an Orion II microplate luminometer (Berthold, Germany). Fold induction of luciferase activity was normalized to basal conditions. Data are expressed as CD values, expressing the concentration required to double the luciferase activity. CD values were calculated from dose–response curves generated from the fold induction of control conditions versus inducer concentration and fitted by nonlinear regression and data interpolated to twofold induction concentration.[68]

[2] = Oxygen radical absorbance capacity (ORAC-FL) assay; conditions: trolox = 1.0
Description: 2,2′-Azobis-(amidinopropane) dihydrochloride (AAPH), trolox, and fluorescein (FL) were purchased from Sigma-Aldrich. The reaction was carried out in a 75 mM phosphate buffer (pH 7.4), and the final reaction mixture was 200 μL. […] Antioxidant curves (fluorescence vs time) were first normalized to the curve of the blank corresponding to the same assay, and the area under the curve (AUC) of fluorescence decay was calculated. The net AUC corresponding to a sample was calculated by subtracting the AUC corresponding to the blank. Regression equations between the net AUC and antioxidant concentration were calculated for all the samples.

QR2 = molecular target: T3, QR2 (Mesocricetus auratus, UniProt A0ABM2YAB8); test: biochemical; conditions: for inhibition at 10 µM: read-out: QR2 percentage of inhibition (in brackets)
T3 sequence (A0ABM2YAB8 1-231): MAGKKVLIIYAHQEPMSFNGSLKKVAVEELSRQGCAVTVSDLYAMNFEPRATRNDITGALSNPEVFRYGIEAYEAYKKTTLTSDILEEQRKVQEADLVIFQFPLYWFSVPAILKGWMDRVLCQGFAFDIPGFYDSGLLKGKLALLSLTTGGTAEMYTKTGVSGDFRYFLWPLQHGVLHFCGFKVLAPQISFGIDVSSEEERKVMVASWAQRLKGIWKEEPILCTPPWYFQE
Description: The QR2 experiments were performed in membrane homogenates of hamster brains (https://www.eurofins.fr, catalog ref. 0088). […] First, radioligand displacement was measured at a fixed compound concentration (10 μM) in each receptor.

in vitro = in vitro ADME; conditions: for Papp at 240 min, 100 μg mL^–1: PAMPA, pH 7.4, class from PAMPA-BBB Pe, read-out: CNS-permeability prediction; for PAMPA-BBB (Pe, 10^–6 cm s^–1): porcine brain lipid, PBS/EtOH (70:30), 240 min, 25 °C
[3] = system: rat primary cortical neurons; test: Neuroprotection against OA-induced toxicity in rat primary cortical neuronal cultures (MTT); conditions: compound 1 μM, OA 10 nM
adult mice NSCs = test: Neurogenic studies in SGZ-derived neurospheres; assay type: cell-based, mouse; conditions: 10 μM
Description: Adult mice NSCs were isolated from SGZ of the dentate gyrus of the hippocampus and grown as free-floating neurospheres (NS).[72],[78] The neurogenic potential of each compound was determined using fluorescence confocal microscopy by quantifying the expression of two well-known neuronal markers: human β-III-tubulin (TuJ-1 clone) and microtubule-associated protein 2 (MAP-2). TuJ-1 is expressed in immature neurons, whereas the expression of MAP-2 indicates a consolidated mature neuronal stage.[79] Given that neurogenesis involves not only the proliferation of NSC but also the migration of newly generated cells, the greatest migration distance promoted by each compound was also measured (Figure 8).
Adult male C57BL/6 mice (3 months old) were used in order to determine neurogenesis activity. […] DAPI staining was used as a nuclear marker. Fluorescent representative images were acquired with a Nikon fluorescence microscope 90i coupled to a digital camera Qi. The microscope configuration was adjusted to produce the optimum signal-to-noise ratio. […] Quantification was undertaken using the image analySIS software (Soft Imaging System Corp., Münster, Germany) and normalized to total nuclei (DAPI-stained). The intensity of immunostaining of neurites from TuJ1-labeled cells and the number of MAP-2-positive cells were estimated from nine neurospheres per condition over three independent experiments. The outgrowth of the neurosphere cells was examined under a phase-contrast microscope and the farthest distance of cell migration was calculated from the edge of the sphere. At least 10 plated neurospheres per treatment were analyzed.

Structure (SMILES) | IC50 (hMAO-A) | IC50 (hMAO-B) | inhibition at 50 µM (hMAO-B) | EC (2-fold induction) [1] | ORAC (trolox equiv) [2] | IC50 (QR2) | inhibition at 10 µM (QR2) | Papp at 240 min, 100 μg mL^–1 (in vitro) | PAMPA-BBB (Pe, 10^–6 cm s^–1) (in vitro) | NRF2 (CD, μM) [1] | neuroprotection against OA-induced toxicity [3] | TuJ-1 and MAP-2 marked cells (adult mice NSCs) | cell migration distance (adult mice NSCs) | inhibition at 50 µM (hMAO-A; read-out: hMAO-A percentage of inhibition (in brackets))
COc1ccc(/C=C/c2n[nH]c(=O)o2)cc1 [2e, 5-[(E)-2-(4-Methoxyphenyl)ethenyl]-1,3,4-oxadiazol-2(3H)-one] | > 50 µM | > 50 µM | 42% | > 60 µM | <0.1 trolox equiv | ~10 µM | 68% | > 4 ×10⁻⁶ cm/s | 6.5 ± 0.5 10^–6 cm s^–1 | – | – | – | – | –
C#CCNC(=O)/C=C/c1ccc(O)c(O)c1 [6o, (2E)-3-(3,4-Dihydroxyphenyl)-N-(prop-2-yn-1-yl)prop-2-enamide] | 47 ± 0.9 µM | > 50 µM | 48% | – | 1.9 ± 0.1 trolox equiv | – | – | < 2 ×10⁻⁶ cm/s | ≤ 0.4 10^–6 cm s^–1 | 19.2 ± 3.7 µM | slightly higher neuroprotection profile than resveratrol | – | – | –
COc1cc(/C=C/c2n[nH]c(=O)o2)cc(OC)c1 [2j, 5-[(E)-2-(3,5-Dimethoxyphenyl)ethenyl]-1,3,4-oxadiazol-2(3H)-one] | > 50 µM | > 50 µM | – | – | <0.1 trolox equiv | 0.51 ± 0.05 µM | – | 2 to 4 ×10⁻⁶ cm/s | 2.1 ± 0.2 10^–6 cm s^–1 | – | – | – | – | –
C#CCn1nc(/C=C/c2cccc(O)c2)oc1=O [5l, 5-[(E)-2-(3-Hydroxyphenyl)ethenyl]-3-(prop-2-yn-1-yl)-1,3,4-oxadiazol-2(3H)-one] | > 50 µM | 3.53 ± 0.15 µM | – | – | 2.7 ± 0.2 trolox equiv | 2.5 ± 0.12 µM | – | > 4 ×10⁻⁶ cm/s | 4.7 10^–6 cm s^–1 and 4.7 ± 0.2 10^–6 cm s^–1 | 8.05 ± 1.41 µM | – | – | – | –
O=c1[nH]nc(/C=C/c2cccc([N+](=O)[O-])c2)o1 [2c, 5-[(E)-2-(3-Nitrophenyl)ethenyl]-1,3,4-oxadiazol-2(3H)-one] | > 50 µM | 1.06 ± 0.22 µM | – | – | <0.1 trolox equiv | ~10 µM | 56% | > 4 ×10⁻⁶ cm/s | 4.7 ± 0.2 10^–6 cm s^–1 | 8.42 ± 0.82 µM | – | clearly increased | extended | –
COc1cccc(/C=C/c2n[nH]c(=O)o2)c1 [2d, 5-[(E)-2-(3-Methoxyphenyl)ethenyl]-1,3,4-oxadiazol-2(3H)-one] | > 50 µM | > 50 µM | 33% | > 60 µM | <0.1 trolox equiv | ~10 µM | 76% | > 4 ×10⁻⁶ cm/s | 4.6 ± 0.2 10^–6 cm s^–1 | – | – | clearly increased | extended | 24%
O=c1[nH]nc(/C=C/c2ccc(O)cc2)o1 [3m, 5-[(E)-2-(4-Hydroxyphenyl)ethenyl]-1,3,4-oxadiazol-2(3H)-one] | 41.5 ± 3.4 µM | 35.7 ± 3 µM | – | – | 3.2 ± 0.1 trolox equiv | – | – | < 2 ×10⁻⁶ cm/s | ≤ 0.7 10^–6 cm s^–1 | – | not able to significantly reduce neuronal death | – | – | –
C#CCNC/C=C/c1ccc(O)c(OC)c1 [8n, 2-Methoxy-4-{(1E)-3-[(prop-2-yn-1-yl)amino]prop-1-en-1-yl}phenol] | 30.3 ± 2.5 µM | > 50 µM | 45% | – | 2.1 ± 0.2 trolox equiv | 0.2 ± 0.04 µM | – | > 4 ×10⁻⁶ cm/s | 8.7 10^–6 cm s^–1 and 8.7 ± 0.6 10^–6 cm s^–1 | 22.3 ± 2.9 µM | – | – | – | –
